In US10072011B2, “Substituted bridged urea analogs as sirtuin modulators” (GlaxoSmithKline Intellectual Property (No.2) Limited, priority 2014, dated 2018):

Molecular target: T1, SIRT1 (Homo sapiens, UniProt Q96EB6)
T1 sequence (Q96EB6 1-747): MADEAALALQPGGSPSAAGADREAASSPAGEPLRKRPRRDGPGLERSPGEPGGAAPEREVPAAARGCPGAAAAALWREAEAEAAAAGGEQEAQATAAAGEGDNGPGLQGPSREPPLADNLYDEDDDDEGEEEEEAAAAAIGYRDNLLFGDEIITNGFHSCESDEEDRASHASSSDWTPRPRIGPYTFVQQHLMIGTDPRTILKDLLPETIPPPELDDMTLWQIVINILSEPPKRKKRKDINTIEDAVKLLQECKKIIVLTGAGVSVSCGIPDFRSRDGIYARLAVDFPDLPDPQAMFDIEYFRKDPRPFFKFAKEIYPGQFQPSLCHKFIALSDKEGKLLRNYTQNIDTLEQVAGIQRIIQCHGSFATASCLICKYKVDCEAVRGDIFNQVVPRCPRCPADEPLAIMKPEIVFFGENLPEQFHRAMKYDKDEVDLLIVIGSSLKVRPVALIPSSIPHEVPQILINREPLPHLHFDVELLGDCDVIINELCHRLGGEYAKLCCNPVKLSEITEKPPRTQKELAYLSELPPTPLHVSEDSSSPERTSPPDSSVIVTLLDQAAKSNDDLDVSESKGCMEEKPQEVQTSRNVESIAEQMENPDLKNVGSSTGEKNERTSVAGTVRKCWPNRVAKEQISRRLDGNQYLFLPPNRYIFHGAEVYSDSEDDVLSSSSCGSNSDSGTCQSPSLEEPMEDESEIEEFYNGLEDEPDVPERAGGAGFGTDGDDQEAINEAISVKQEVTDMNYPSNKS
Assay: Trp mass spectrometry assay of SIRT1 activation (Ac-R-H-K-K(Ac)-W-NH2 peptide)
Assay type: biochemical
Details: Trp peptide 0.5 μM, 120 μM βNAD+, 10 nM SIRT1, 25 min at 25° C.; for Emax: 25 min, read-out: TRP MAX RESP (percent maximum fold activation)
Experimental: The Trp mass spectrometry assay was conducted as follows. […] The SIRT1 protein was obtained by cloning the SirT1 gene into a T7-promoter containing vector, which was then expressed in BL21(DE3) bacterial cells and purified as described in further detail below. Test compound was added at varying concentrations to this reaction mixture and the resulting reactions were monitored. After the 25 minute incubation with SIRT1, 10 μL of 10% formic acid was added to stop the reaction. The resulting reactions were sealed and frozen for later mass spec analysis. The relative SIRT1 activity was then determined by measuring the amount of O-acetyl-ADP-ribose (OAADPR) formed (or, alternatively, the amount of deacetylated Trp peptide generated) by the NAD-dependent sirtuin deacetylation reaction in the presence of varying concentrations of the test compound versus control reactions lacking the test compound. The degree to which the test agent activated deacetylation by SIRT1 was expressed as EC1.5 (i.e., the concentration of compound required to increase SIRT1 activity by 50% over the control lacking test compound), and Percent Maximum Activation (i.e., the maximum activity relative to control (100%) obtained for the test compound).
This time point was the same as that used for test compounds and, within the linear range, the endpoint represents a change in velocity.
For the above assay, SIRT1 protein was expressed and purified as follows. The SirT1 gene was cloned into a T7-promoter containing vector and transformed into BL21(DE3). The protein was expressed by induction with 1 mM IPTG as an N-terminal His-tag fusion protein at 18° C. overnight and harvested at 30,000×g. Cells were lysed with lysozyme in lysis buffer (50 mM Tris-HCl, 2 mM Tris[2-carboxyethyl]phosphine (TCEP), 10 μM ZnCl2, 200 mM NaCl) and further treated with sonication for 10 min for complete lysis. The protein was purified over a Ni-NTA column (Amersham) and fractions containing pure protein were pooled, concentrated and run over a sizing column (Sephadex S200 26/60 global). The peak containing soluble protein was collected and run on an Ion-exchange column (MonoQ). Gradient elution (200 mM-500 mM NaCl) yielded pure protein. This protein was concentrated and dialyzed against dialysis buffer (20 mM Tris-HCl, 2 mM TCEP) overnight. The protein was aliquoted and frozen at −80° C. until further use.
“NT” means not tested; “ND” means not determinable.

SMILES	Emax (relative to control (100%))	TRP Activity (EC1.5, concentration of test compound that results in 150% activation of SIRT1)	TRP MAX RESP (percent maximum fold activation) (relative to control (100%))
C[C@@H](NC(=O)c1nc2c(cc1Cl)N1CC[C@@H](C1)N2C(=O)Nc1ccccn1)C(F)(F)F [Example 280, (4S)-8-chloro-N5-(pyridin-2-yl)-N7-((R)-1,1,1-trifluoropropan-2-yl)-3,4-dihydro-1,4-methanopyrido[2,3-b][1,4]diazepine-5,7(2H)-dicarboxamide]	> 150%	A (EC1.5<1 μM)	
Cc1ccc2c(NC(=O)N3c4nc(C(=O)NC5CC5(F)F)ccc4N4CC[C@H]3C4)n[nH]c2n1 (single isomer, unassigned) [Example 65]	> 150%	A (EC1.5<1 μM)	
C[C@@H](NC(=O)c1ccc2c(n1)N(C(=O)Nc1ccnn(C)c1=O)[C@H]1CCN2C1)C(F)(F)F [Example 122, (4S)—N5-(2-methyl-3-oxo-2,3-dihydropyridazin-4-yl)-N7-((R)-1,1,1-trifluoropropan-2-yl)-3,4-dihydro-1,4-methanopyrido[2,3-b][1,4]diazepine-5,7(2H)-dicarboxamide]	> 150%	A (EC1.5<1 μM)	
O=C(NC1CC1)c1ccc2c(n1)N(C(=O)Nc1cc(OC[C@@H](O)CO)ccn1)[C@H]1CCN2C1 [Example 250, (4S)—N7-cyclopropyl-N5-(4-((S)-2,3-dihydroxypropoxy)pyridin-2-yl)-3,4-dihydro-1,4-methanopyrido[2,3-b][1,4]diazepine-5,7(2H)-dicarboxamide]	> 150%	A (EC1.5<1 μM)	
O=C(NC(CCO)C(F)(F)F)c1ccc2c(n1)N(C(=O)Nc1ccccn1)[C@H]1CCN2C1 (single isomer, unassigned) [Example 18]	> 150%	A (EC1.5<1 μM)	
O=C(NC(CO)C1CC1)c1ccc2c(n1)N(C(=O)Nc1ccccn1)[C@H]1CCN2C1 (single isomer, unassigned) [Example 58]	> 150%	A (EC1.5<1 μM)	
C[C@@H](NC(=O)c1ccc2c(n1)N(C(=O)Nc1ncc(F)cc1F)[C@H]1CCN2C1)C(F)(F)F [Example 239, (4S)—N5-(3,5-difluoropyridin-2-yl)-N7-((R)-1,1,1-trifluoropropan-2-yl)-3,4-dihydro-1,4-methanopyrido[2,3-b][1,4]diazepine-5,7(2H)-dicarboxamide]	> 150%	B (EC1.5 1-25 μM)	
O=C(NC1CC1(F)F)c1ccc2c(n1)N(C(=O)Nc1ccccn1)[C@H]1CCN2C1 (single isomer, unassigned) [Example 44]		A (EC1.5<1 μM)	
CN(CC(F)(F)F)C(=O)c1ccc2c(n1)N(C(=O)Nc1ccccn1)[C@H]1CCN2C1 [Example 254, (4S)—N7-methyl-N5-(pyridin-2-yl)-N7-(2,2,2-trifluoroethyl)-3,4-dihydro-1,4-methanopyrido[2,3-b][1,4]diazepine-5,7(2H)-dicarboxamide]	> 150%	B (EC1.5 1-25 μM)	
O=C(NC[C@H](O)C(F)(F)F)c1ccc2c(n1)N(C(=O)Nc1ccc(F)cn1)[C@H]1CCN2C1 [Example 81, (4S)—N5-(5-fluoropyridin-2-yl)-N7-((S)-3,3,3-trifluoro-2-hydroxypropyl)-3,4-dihydro-1,4-methanopyrido[2,3-b][1,4]diazepine-5,7(2H)-dicarboxamide]	> 150%	A (EC1.5<1 μM)	
COCC(NC(=O)c1ccc2c(n1)N(C(=O)Nc1ccccn1)[C@H]1CCN2C1)C1CC1 (single isomer, unassigned) [Example 59]	> 150%	A (EC1.5<1 μM)	
O=C(NC1CC1(F)F)c1ccc2c(n1)N(C(=O)Nc1cnccn1)[C@H]1CCN2C1 (single isomer, unassigned) [Example 272]	> 150%	A (EC1.5<1 μM)	
O=C(NC1CC1)c1ccc2c(n1)N(C(=O)Nc1ncccn1)[C@H]1CCN2C1 [Example 204, (4S)—N7-cyclopropyl-N5-(pyrimidin-2-yl)-3,4-dihydro-1,4-methanopyrido[2,3-b][1,4]diazepine-5,7(2H)-dicarboxamide]	> 150%	B (EC1.5 1-25 μM)	
C[C@@H](NC(=O)c1ccc2c(n1)N(C(=O)Nc1cccnn1)[C@H]1CCN2C1)C(F)(F)F [Example 77, (4S)—N5-(pyridazin-3-yl)-N7-((R)-1,1,1-trifluoropropan-2-yl)-3,4-dihydro-1,4-methanopyrido[2,3-b][1,4]diazepine-5,7(2H)-dicarboxamide]	> 150%	A (EC1.5<1 μM)	
Cc1ccc2c(NC(=O)N3c4nc(C(=O)NC5CC5)ccc4N4CC[C@H]3C4)n[nH]c2n1 [Example 54, (4S)—N7-cyclopropyl-N5-(6-methyl-1H-pyrazolo[3,4-b]pyridin-3-yl)-3,4-dihydro-1,4-methanopyrido[2,3-b][1,4]diazepine-5,7(2H)-dicarboxamide]	> 150%	B (EC1.5 1-25 μM)	
CC(=O)Nc1ccnc(NC(=O)N2c3nc(C(=O)NCC(F)(F)F)ccc3N3CC[C@H]2C3)c1 [Example 167, (4S)—N5-(4-acetamidopyridin-2-yl)-N7-(2,2,2-trifluoroethyl)-3,4-dihydro-1,4-methanopyrido[2,3-b][1,4]diazepine-5,7(2H)-dicarboxamide]	> 150%	A (EC1.5<1 μM)	
O=C(O)c1ccc(NC(=O)N2c3nc(C(=O)NCC(F)(F)F)ccc3N3CC[C@H]2C3)nc1 [Example 213, 6-((4S)-7-((2,2,2-trifluoroethyl)carbamoyl)-2,3,4,5-tetrahydro-1,4-methanopyrido[2,3-b][1,4]diazepine-5-carboxamido)nicotinic acid]	> 150%	B (EC1.5 1-25 μM)	
COc1cc(NC(=O)N2c3nc(C(=O)NC4CC4(F)F)ccc3N3CC[C@H]2C3)ncn1 (single isomer, unassigned) [Example 303]		A (EC1.5<1 μM)	B (Fold Activation<150%)
